Test results as given in patent US10004701B2, “Methods and compositions for treating infection” (UNIVERSITY OF ROCHESTER, priority 2012, dated 2018).
Structures can show the parent of a compound that is named as a salt. Where two headings read alike, the source gives them in different places.

Key:
Assay in all cases: AK assay 384-well format, Prestwick library screening
E. cloacae = type: cell-based, Enterobacter cloacae; details: 50 μM final drug concentration; for fold induction at 50 µM: Enterobacter cloacae, 3 h
E. faecium = type: cell-based, Enterococcus faecium; details: 50 μM final drug concentration; for fold induction at 50 µM: Enterococcus faecium, 3 h
E. coli = type: cell-based, Escherichia coli; details: for fold induction at 50 µM: Escherichia coli, 3 h
K. pneumoniae = type: cell-based, Klebsiella pneumoniae; details: 50 μM final drug concentration; for fold induction at 50 µM: Klebsiella pneumoniae, 3 h
[1] = tested on: S. aureus strain USA300-0114; type: cell-based, Staphylococcus aureus; details: 50 μM final drug concentration; for fold induction at 50 µM: Staphylococcus aureus, USA300, 3 h
[2] = tested on: A. baumannii strain 98-37-09; type: cell-based, Acinetobacter baumannii; details: 50 μM final drug concentration; for fold induction at 50 µM: Acinetobacter baumannii, 983709, 3 h
P. aeruginosa = type: cell-based, Pseudomonas aeruginosa; details: 50 μM final drug concentration; for fold induction at 50 µM: Pseudomonas aeruginosa, 3 h
[3] = 384-well format, cutoff for positive-scoring molecules 3-fold increase, read-out: AK-based Prestwick Library Screening Results, E. cloacae (increase in extracellular AK activity)
[4] = 384-well format, cutoff for positive-scoring molecules 3-fold increase, read-out: AK-based Prestwick Library Screening Results, E. faecium (increase in extracellular AK activity)
[5] = 50 μM final drug concentration, 384-well format, cutoff for positive-scoring molecules 3-fold increase, read-out: AK-based Prestwick Library Screening Results, E. coli (increase in extracellular AK activity)
[6] = 384-well format, cutoff for positive-scoring molecules 3-fold increase, read-out: AK-based Prestwick Library Screening Results, K. pneumoniae (increase in extracellular AK activity)
[7] = 384-well format, cutoff for positive-scoring molecules 3-fold increase, read-out: AK-based Prestwick Library Screening Results, S. aureus (increase in extracellular AK activity)
[8] = 384-well format, cutoff for positive-scoring molecules 3-fold increase, read-out: AK-based Prestwick Library Screening Results, A. baumannii (increase in extracellular AK activity)
[9] = 384-well format, cutoff for positive-scoring molecules 3-fold increase, read-out: AK-based Prestwick Library Screening Results, P. aeruginosa (increase in extracellular AK activity)
[10] = planktonic E. cloacae, 384-well, […], read-out: AK-based Prestwick Library Screening Results: E. cloacae (increase in extracellular AK activity)
[11] = planktonic E. faecium, 384-well, […], read-out: AK-based Prestwick Library Screening Results: E. faecium (increase in extracellular AK activity)
[12] = planktonic K. pneumoniae, 384-well, […], read-out: AK-based Prestwick Library Screening Results: K. pneumoniae (increase in extracellular AK activity)
[13] = planktonic S. aureus, 384-well, […], read-out: AK-based Prestwick Library Screening Results: S. aureus (increase in extracellular AK activity)
[14] = planktonic A. baumannii, 384-well, […], read-out: AK-based Prestwick Library Screening Results: A. baumannii (increase in extracellular AK activity)
[15] = planktonic P. aeruginosa, 384-well, […], read-out: AK-based Prestwick Library Screening Results: P. aeruginosa (increase in extracellular AK activity)
[16] = cutoff for positive-scoring molecules 3-fold increase

C[C@]12C=CC(=O)C=C1CC[C@H]1[C@@H]3C[C@@H](O)[C@](O)(C(=O)CO)[C@@]3(C)C[C@H](O)[C@@]12F [Triamcinolone]
fold induction at 50 µM (E. cloacae; [3]): 1.2 | fold induction at 50 µM (E. faecium; [4]): 1 | fold induction at 50 µM (E. coli; [5]): 1 | fold induction at 50 µM (K. pneumoniae; [6]): 0.7 | fold induction at 50 µM [1, 7]: 0.8 | fold induction at 50 µM [2, 8]: 0.9 | fold induction at 50 µM (P. aeruginosa; [9]): 0.7

Nc1nc(N)c2nc(-c3ccccc3)c(N)nc2n1 [Triamterene]
fold induction at 50 µM (E. cloacae; [3]): 1.2 | fold induction at 50 µM (E. faecium; [4]): 0.7 | fold induction at 50 µM (E. coli; [5]): 0.6 | fold induction at 50 µM (K. pneumoniae; [6]): 0.5 | fold induction at 50 µM [1, 7]: 0.6 | fold induction at 50 µM [2, 8]: 1.1 | fold induction at 50 µM (P. aeruginosa; [9]): 0.6

CCOC1O[C@H]([C@@H](COCc2ccccc2)OCc2ccccc2)[C@H](OCc2ccccc2)[C@H]1O (stereo partly drawn) [Tribenoside]
fold induction at 50 µM (E. cloacae; planktonic E. cloacae, positive cutoff 3-fold increase, read-out: AK-based Prestwick library screening result, E. cloacae (fold increase in extracellular AK activity)): 1.5 | fold induction at 50 µM (E. faecium; planktonic E. faecium, positive cutoff 3-fold increase, read-out: AK-based Prestwick library screening result, E. faecium (fold increase in extracellular AK activity)): 1.1 | fold induction at 50 µM (E. coli; planktonic E. coli, 50 μM final drug concentration, positive cutoff 3-fold increase, read-out: AK-based Prestwick library screening result, E. coli (fold increase in extracellular AK activity)): 0.9 | fold induction at 50 µM (K. pneumoniae; planktonic K. pneumoniae, positive cutoff 3-fold increase, read-out: AK-based Prestwick library screening result, K. pneumoniae (fold increase in extracellular AK activity)): 0.9 | fold induction at 50 µM ([1]; planktonic S. aureus, positive cutoff 3-fold increase, read-out: AK-based Prestwick library screening result, S. aureus (fold increase in extracellular AK activity)): 0.6 | fold induction at 50 µM ([2]; planktonic A. baumannii, positive cutoff 3-fold increase, read-out: AK-based Prestwick library screening result, A. baumannii (fold increase in extracellular AK activity)): 1.7 | fold induction at 50 µM (P. aeruginosa; planktonic P. aeruginosa, positive cutoff 3-fold increase, read-out: AK-based Prestwick library screening result, P. aeruginosa (fold increase in extracellular AK activity)): 1.1

COP(=O)(OC)C(O)C(Cl)(Cl)Cl (stereo not drawn) [Trichlorfon]
fold induction at 50 µM (E. cloacae; [10]): 1.5 | fold induction at 50 µM (E. faecium; [11]): 0.8 | fold induction at 50 µM (E. coli; planktonic E. coli, 50 μM final drug concentration, 384-well, […], read-out: AK-based Prestwick Library Screening Results: E. coli (increase in extracellular AK activity)): 1.2 | fold induction at 50 µM (K. pneumoniae; [12]): 1.1 | fold induction at 50 µM [1, 13]: 1.1 | fold induction at 50 µM [2, 14]: 0.9 | fold induction at 50 µM (P. aeruginosa; [15]): 1

NS(=O)(=O)c1cc2c(cc1Cl)NC(C(Cl)Cl)NS2(=O)=O (stereo not drawn) [Trichlormethiazide]
fold induction at 50 µM (E. cloacae; planktonic, cutoff for positive-scoring molecules 3-fold increase, read-out: AK-based Prestwick Library Screening Results, E. cloacae (fold increase in extracellular AK activity)): 1.2 | fold induction at 50 µM (E. faecium; planktonic, cutoff for positive-scoring molecules 3-fold increase, read-out: AK-based Prestwick Library Screening Results, E. faecium (fold increase in extracellular AK activity)): 1.4 | fold induction at 50 µM (E. coli; 50 μM final drug concentration, planktonic, cutoff for positive-scoring molecules 3-fold increase, read-out: AK-based Prestwick Library Screening Results, E. coli (fold increase in extracellular AK activity)): 0.8 | fold induction at 50 µM (K. pneumoniae; planktonic, cutoff for positive-scoring molecules 3-fold increase, read-out: AK-based Prestwick Library Screening Results, K. pneumoniae (fold increase in extracellular AK activity)): 0.8 | fold induction at 50 µM ([1]; planktonic, cutoff for positive-scoring molecules 3-fold increase, read-out: AK-based Prestwick Library Screening Results, S. aureus (fold increase in extracellular AK activity)): 1.3 | fold induction at 50 µM ([2]; planktonic, cutoff for positive-scoring molecules 3-fold increase, read-out: AK-based Prestwick Library Screening Results, A. baumannii (fold increase in extracellular AK activity)): 1 | fold induction at 50 µM (P. aeruginosa; planktonic, cutoff for positive-scoring molecules 3-fold increase, read-out: AK-based Prestwick Library Screening Results, P. aeruginosa (fold increase in extracellular AK activity)): 0.8

CC[N+](CC)(CC)CCC(O)(c1ccccc1)C1CCCCC1.[Cl-] (stereo not drawn) [Tridihexethyl chloride]
AK-based Prestwick Library Screening Results, E. cloacae (fold increase in extracellular AK activity) (E. cloacae; [16]): 0.3 | AK-based Prestwick Library Screening Results, E. faecium (fold increase in extracellular AK activity) (E. faecium; [16]): 0.8 | AK-based Prestwick Library Screening Results, E. coli (fold increase in extracellular AK activity) (E. coli; 50 μM final drug concentration, cutoff for positive-scoring molecules 3-fold increase): 0.4 | AK-based Prestwick Library Screening Results, K. pneumoniae (fold increase in extracellular AK activity) (K. pneumoniae; [16]): 0.4 | AK-based Prestwick Library Screening Results, S. aureus (fold increase in extracellular AK activity) [1, 16]: 0.4 | AK-based Prestwick Library Screening Results, A. baumannii (fold increase in extracellular AK activity) [2, 16]: 0.4 | AK-based Prestwick Library Screening Results, P. aeruginosa (fold increase in extracellular AK activity) (P. aeruginosa; [16]): 0.4

CN1CCN(CCCN2c3ccccc3Sc3ccc(C(F)(F)F)cc32)CC1 [Trifluoperazine dihydrochloride]
fold induction at 50 µM (E. cloacae; planktonic E. cloacae, 384-well, cutoff for positive-scoring molecules 3-fold increase, read-out: AK-based Prestwick Library Screening Results: E. cloacae (increase in extracellular AK activity)): 1.3 | fold induction at 50 µM (E. faecium; planktonic E. faecium, 384-well, cutoff for positive-scoring molecules 3-fold increase, read-out: AK-based Prestwick Library Screening Results: E. faecium (increase in extracellular AK activity)): 1.1 | fold induction at 50 µM (E. coli; planktonic E. coli, 50 μM final drug concentration, 384-well, cutoff for positive-scoring molecules 3-fold increase, read-out: AK-based Prestwick Library Screening Results: E. coli (increase in extracellular AK activity)): 1.7 | fold induction at 50 µM (K. pneumoniae; planktonic K. pneumoniae, 384-well, cutoff for positive-scoring molecules 3-fold increase, read-out: AK-based Prestwick Library Screening Results: K. pneumoniae (increase in extracellular AK activity)): 1.5 | fold induction at 50 µM ([1]; planktonic S. aureus, 384-well, cutoff for positive-scoring molecules 3-fold increase, read-out: AK-based Prestwick Library Screening Results: S. aureus (increase in extracellular AK activity)): 1.2 | fold induction at 50 µM ([2]; planktonic A. baumannii, 384-well, cutoff for positive-scoring molecules 3-fold increase, read-out: AK-based Prestwick Library Screening Results: A. baumannii (increase in extracellular AK activity)): 3.4 | fold induction at 50 µM (P. aeruginosa; planktonic P. aeruginosa, 384-well, cutoff for positive-scoring molecules 3-fold increase, read-out: AK-based Prestwick Library Screening Results: P. aeruginosa (increase in extracellular AK activity)): 1.4

CN(C)CCCN1c2ccccc2Sc2ccc(C(F)(F)F)cc21 [Triflupromazine hydrochloride]
fold induction at 50 µM (E. cloacae; [10]): 1.6 | fold induction at 50 µM (E. faecium; [11]): 0.9 | fold induction at 50 µM (E. coli; read-out: AK-based Prestwick Library Screening Results: E. coli (increase in extracellular AK activity)): 1.1 | fold induction at 50 µM (K. pneumoniae; [12]): 1 | fold induction at 50 µM [1, 13]: 1.1 | fold induction at 50 µM [2, 14]: 1.5 | fold induction at 50 µM (P. aeruginosa; [15]): 1

O=c1[nH]c(=O)n([C@H]2C[C@H](O)[C@@H](CO)O2)cc1C(F)(F)F [Trifluridine]
fold induction at 50 µM (E. cloacae; planktonic E. cloacae, […], read-out: AK-based Prestwick library screening result, E. cloacae (fold increase in extracellular AK activity)): 0.7 | fold induction at 50 µM (E. faecium; planktonic E. faecium, […], read-out: AK-based Prestwick library screening result, E. faecium (fold increase in extracellular AK activity)): 0.9 | fold induction at 50 µM (E. coli; planktonic E. coli, 50 μM final drug concentration, […], read-out: AK-based Prestwick library screening result, E. coli (fold increase in extracellular AK activity)): 0.9 | fold induction at 50 µM (K. pneumoniae; planktonic K. pneumoniae, […], read-out: AK-based Prestwick library screening result, K. pneumoniae (fold increase in extracellular AK activity)): 1.1 | fold induction at 50 µM ([1]; planktonic S. aureus, […], read-out: AK-based Prestwick library screening result, S. aureus (fold increase in extracellular AK activity)): 0.7 | fold induction at 50 µM ([2]; planktonic A. baumannii, […], read-out: AK-based Prestwick library screening result, A. baumannii (fold increase in extracellular AK activity)): 1.1 | fold induction at 50 µM (P. aeruginosa; planktonic P. aeruginosa, […], read-out: AK-based Prestwick library screening result, P. aeruginosa (fold increase in extracellular AK activity)): 0.6
